Reference: patent publication US20240307350A1, “5-METHOXY-N,N-DIMETHYLTRYPTAMINE (5-MEO-DMT) FOR TREATING DEPRESSION” (GH RESEARCH IRELAND LIMITED, priority 2019, published 2024)

Tested on: healthy volunteers
Assay: Clinical trial of inhaled 5-MeO-DMT in healthy volunteers: safety and tolerability
Format: in vivo, human
Protocol: A clinical trial was performed in which 5-MeO-DMT free base (purity not less than 99%) at different dose levels was administered via inhalation (as described in Example 1) in a single day to healthy volunteers who had prior experiences with the use of synthetic or naturally-occurring psychedelics. The trial was reviewed and approved by the relevant national competent authority and local medical ethics committee. The trial consisted of two parts: Part A, where single doses of 5-MeO-DMT dosage amounts of 2 mg, 6 mg, 12 mg and 18 mg were administered; and Part B, where an initial 5-MeO-DMT dosage amount of 6 mg was administered, and then, unless the participant had already experienced a peak psychedelic experience based on the PPEQ or the supervising physician had decided that further dose increases were inappropriate based on observed side effects, further subsequent dosage amounts of 12 mg and 18 mg were administered with about 3 hours in between each administration. Participants in Part A only received one dose and were not allowed to receive higher doses in later parts of Part A and were not allowed to participate in Part B. Participants were closely monitored for 3.5 hours after the last dose, with additional follow-up visits 1 day and 7 days after dosing. Various safety related measures (e.g., adverse event reporting, safety laboratory analyses, vital signs, ECG, CADSS, PVT, DSST, Prospective Memory Task (PMT)) as well as measures of the intensity of the psychedelic effects (MEQ30, ASC, PPEQ, subjective description of the psychedelic experience) were recorded. Pharmacokinetic analysis of 5-MeO-DMT and bufotenine plasma levels was performed at 1 hour and 3 hours after drug administration in Part A, and at 3 hours after drug administration in Part B.
18 participants were recruited into Part A of the study and 4 participants were recruited into Part B. 9 Participants were female and 13 participants were male. Median age was 29 years (range: 19 to 42 years). In Part A, 4 participants received 2 mg, 6 participants received 6 mg, 4 participants received 12 mg and 4 participants received 18 mg of 5-MeO-DMT. In Part B, 1 participant received 6 mg, 2 participants received 6 mg and then 12 mg and one participant received 6 mg, 12 mg and then 18 mg of 5-MeO-DMT.

[1] = Part A, 2 mg (n = 4), Administration day, mild
[2] = Part A, 6 mg (n = 6), Administration day, mild
[3] = Part A, 6 mg (n = 6), Day 1, mild
[4] = Part A, 18 mg (n = 4), Administration day, mild
[5] = Part A, 18 mg (n = 4), Day 1, mild
[6] = Part B, 12 mg (n = 3), after 6 mg, Administration day, mild

Structure (SMILES): COc1ccc2[nH]cc(CCN(C)C)c2c1 [5-MeO-DMT, 5-methoxy-N,N-dimethyltryptamine]
- ECG, safety laboratory analyses, CADSS and cognitive tests (PVT, DSST, PMT) (2 mg to 18 mg via inhalation): unremarkable
- inhalation-related adverse events (Part A and Part B, 2 mg to 18 mg via inhalation): No inhalation-related adverse events
- Adverse events reported: Nausea (number of volunteers) [1]: 2
- Adverse events reported: Tachycardia (number of volunteers) [1]: 1
- Adverse events reported: Vision blurred (number of volunteers) [1]: 1
- Adverse events reported: Anxiety (number of volunteers) [2]: 1
- Adverse events reported: Headache (number of volunteers) [2]: 1
- Adverse events reported: Nausea (number of volunteers) [2]: 1
- Adverse events reported: Clumsiness (number of volunteers) [3]: 1
- Adverse events reported: Feeling hot (number of volunteers) [3]: 1
- Adverse events reported: Headache (number of volunteers) [3]: 1
- Adverse events reported: Anxiety (number of volunteers) (Part A, 12 mg (n = 4), Administration day, mild): 1
- Adverse events reported: Heart rate increased (number of volunteers) (Part A, 12 mg (n = 4), Administration day, this event was moderate): 1^1
- Adverse events reported: Headache (number of volunteers) [4]: 1
- Adverse events reported: Nausea (number of volunteers) [4]: 1
- Adverse events reported: Abnormal dreams (number of volunteers) [5]: 1
- Adverse events reported: Fatigue (number of volunteers) [5]: 1
- Adverse events reported: Hallucination (number of volunteers) [5]: 1
- Adverse events reported: Hyperacusis (number of volunteers) [5]: 1
- Adverse events reported: Insomnia (number of volunteers) [5]: 1
- Adverse events reported: Mental fatigue (number of volunteers) [5]: 1
- Adverse events reported: Flashback (number of volunteers) (Part A, 18 mg (n = 4), Day 7, mild): 1
- Adverse events reported: Nausea (number of volunteers) (Part B, 6 mg (n = 4), Administration day, mild): 1
- Adverse events reported: Fatigue (number of volunteers) [6]: 1
- Adverse events reported: Head discomfort (number of volunteers) [6]: 1
- Adverse events reported: Headache (number of volunteers) [6]: 1
- Adverse events reported: Nausea (number of volunteers) [6]: 1
- Adverse events reported (Part B, 18 mg (n = 1), after 12 mg and 6 mg): None reported
- changes in vital parameters (shortly after administration, 2 mg to 18 mg via inhalation): temporary, not clinically relevant increase in heart rate and blood pressure
